PubChem BioAssay (NCI)
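Protocol summary: plate cells (96-well), add compound at 5 concentrations, incubate 48 h, interpolate endpoints linearly. TGI marks complete inhibition of growth.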

What was measured:
Test in all cases: NCI anticancer screen, dose series, 48 h
HT29 colon = system: HT29 colon
SK-MEL-5 melanoma = system: SK-MEL-5 melanoma
MALME-3M melanoma = system: MALME-3M melanoma
OVCAR-5 ovarian = system: OVCAR-5 ovarian
CCRF-CEM leukemia = system: CCRF-CEM leukemia
K-562 leukemia = system: K-562 leukemia
SN12C renal = system: SN12C renal
SF-539 CNS = system: SF-539 CNS
SR leukemia = system: SR leukemia
MDA-N = system: MDA-N
SF-295 CNS = system: SF-295 CNS
MDA-MB-435 = system: MDA-MB-435
NCI-H23 lung = system: NCI-H23 lung
UACC-257 melanoma = system: UACC-257 melanoma
NCI/ADR-RES ovarian = system: NCI/ADR-RES ovarian
DU-145 prostate = system: DU-145 prostate
MCF7 breast = system: MCF7 breast
LOX IMVI melanoma = system: LOX IMVI melanoma
RXF 393 renal = system: RXF 393 renal
OVCAR-3 ovarian = system: OVCAR-3 ovarian
SF-268 CNS = system: SF-268 CNS
HS 578T breast = system: HS 578T breast
NCI-H460 lung = system: NCI-H460 lung
OVCAR-8 ovarian = system: OVCAR-8 ovarian
SNB-19 CNS = system: SNB-19 CNS
IGROV1 ovarian = system: IGROV1 ovarian
HCC-2998 colon = system: HCC-2998 colon
RPMI-8226 leukemia = system: RPMI-8226 leukemia
HL-60(TB) leukemia = system: HL-60(TB) leukemia
COLO 205 colon = system: COLO 205 colon
786-0 renal = system: 786-0 renal
TK-10 renal = system: TK-10 renal
HCT-15 colon = system: HCT-15 colon
MDA-MB-231 breast = system: MDA-MB-231 breast
PC-3 prostate = system: PC-3 prostate
OVCAR-4 ovarian = system: OVCAR-4 ovarian
HCT-116 colon = system: HCT-116 colon
EKVX NSCLC = system: EKVX NSCLC
SK-MEL-28 melanoma = system: SK-MEL-28 melanoma
SNB-75 CNS = system: SNB-75 CNS
NCI-H522 lung = system: NCI-H522 lung
HOP-62 NSCLC = system: HOP-62 NSCLC
UO-31 renal = system: UO-31 renal
HOP-92 NSCLC = system: HOP-92 NSCLC
CAKI-1 renal = system: CAKI-1 renal
A549 NSCLC = system: A549 NSCLC
U251 CNS = system: U251 CNS
KM12 colon = system: KM12 colon
A498 renal = system: A498 renal
ACHN renal = system: ACHN renal
MOLT-4 leukemia = system: MOLT-4 leukemia
BT-549 breast = system: BT-549 breast
NCI-H226 lung = system: NCI-H226 lung
SW-620 colon = system: SW-620 colon
UACC-62 melanoma = system: UACC-62 melanoma
SK-MEL-2 melanoma = system: SK-MEL-2 melanoma
T-47D breast = system: T-47D breast
SK-OV-3 ovarian = system: SK-OV-3 ovarian
M14 melanoma = system: M14 melanoma

SMILES: CC(C)(C)OC(=O)NC(CSCc1ccc(C(=O)c2ccccc2)cc1)C(=O)O (stereo unspecified)
- TGI (HT29 colon): > 100 µM
- TGI (SK-MEL-5 melanoma): > 100 µM
- TGI (MALME-3M melanoma): > 100 µM
- TGI (OVCAR-5 ovarian): > 100 µM
- TGI (CCRF-CEM leukemia): > 100 µM
- TGI (K-562 leukemia): > 100 µM
- TGI (SN12C renal): > 100 µM
- TGI (SF-539 CNS): > 100 µM
- TGI (SR leukemia): > 100 µM
- TGI (MDA-N): > 100 µM
- TGI (SF-295 CNS): > 100 µM
- TGI (MDA-MB-435): > 100 µM
- TGI (NCI-H23 lung): > 100 µM
- TGI (UACC-257 melanoma): > 100 µM
- TGI (NCI/ADR-RES ovarian): > 100 µM
- TGI (DU-145 prostate): > 100 µM
- TGI (MCF7 breast): > 100 µM
- TGI (LOX IMVI melanoma): > 100 µM
- TGI (RXF 393 renal): > 100 µM
- TGI (OVCAR-3 ovarian): > 100 µM
- TGI (SF-268 CNS): > 100 µM
- TGI (HS 578T breast): > 100 µM
- TGI (NCI-H460 lung): > 100 µM
- TGI (OVCAR-8 ovarian): > 100 µM
- TGI (SNB-19 CNS): > 100 µM
- TGI (IGROV1 ovarian): > 100 µM
- TGI (HCC-2998 colon): > 100 µM
- TGI (RPMI-8226 leukemia): > 100 µM
- TGI (HL-60(TB) leukemia): > 100 µM
- TGI (COLO 205 colon): > 100 µM
- TGI (786-0 renal): > 100 µM
- TGI (TK-10 renal): > 100 µM
- TGI (HCT-15 colon): > 100 µM
- TGI (MDA-MB-231 breast): > 100 µM
- TGI (PC-3 prostate): > 100 µM
- TGI (OVCAR-4 ovarian): > 100 µM
- TGI (HCT-116 colon): > 100 µM
- TGI (EKVX NSCLC): > 100 µM
- TGI (SK-MEL-28 melanoma): > 100 µM
- TGI (SNB-75 CNS): > 100 µM
- TGI (NCI-H522 lung): > 100 µM
- TGI (HOP-62 NSCLC): > 100 µM
- TGI (UO-31 renal): > 100 µM
- TGI (HOP-92 NSCLC): > 100 µM
- TGI (CAKI-1 renal): > 100 µM
- TGI (A549 NSCLC): > 100 µM
- TGI (U251 CNS): > 100 µM
- TGI (KM12 colon): > 100 µM
- TGI (A498 renal): > 100 µM
- TGI (ACHN renal): > 100 µM
- TGI (MOLT-4 leukemia): > 100 µM
- TGI (BT-549 breast): > 100 µM
- TGI (NCI-H226 lung): > 100 µM
- TGI (SW-620 colon): > 100 µM

SMILES: CN(C)c1ccc(/C=C2\C[C@H]3[C@@H]4CC=C5C[C@@H](O)CC[C@]5(C)[C@H]4CC[C@]3(C)C2=O)cc1
- TGI (HT29 colon): 56.2 µM
- TGI (SK-MEL-5 melanoma): > 100 µM
- TGI (MALME-3M melanoma): 39.6 µM
- TGI (OVCAR-5 ovarian): 46.4 µM
- TGI (K-562 leukemia): > 100 µM
- TGI (SN12C renal): 54.9 µM
- TGI (UACC-62 melanoma): 32.6 µM
- TGI (SF-539 CNS): 27.9 µM
- TGI (SR leukemia): > 100 µM
- TGI (MDA-N): > 100 µM
- TGI (SF-295 CNS): 75.8 µM
- TGI (NCI-H23 lung): 81.2 µM
- TGI (UACC-257 melanoma): 40.2 µM
- TGI (NCI/ADR-RES ovarian): 66.8 µM
- TGI (DU-145 prostate): > 100 µM
- TGI (MCF7 breast): > 100 µM
- TGI (LOX IMVI melanoma): 29 µM
- TGI (RXF 393 renal): 43.9 µM
- TGI (SK-MEL-2 melanoma): 41.4 µM
- TGI (OVCAR-3 ovarian): 66.8 µM
- TGI (SF-268 CNS): 27.7 µM
- TGI (NCI-H460 lung): 33.7 µM
- TGI (OVCAR-8 ovarian): 19.1 µM
- TGI (SNB-19 CNS): 39.3 µM
- TGI (T-47D breast): 62.8 µM
- TGI (IGROV1 ovarian): 35.8 µM
- TGI (RPMI-8226 leukemia): > 100 µM
- TGI (HL-60(TB) leukemia): > 100 µM
- TGI (COLO 205 colon): > 100 µM
- TGI (786-0 renal): 41 µM
- TGI (TK-10 renal): 39.3 µM
- TGI (HCT-15 colon): > 100 µM
- TGI (SK-OV-3 ovarian): 63.7 µM
- TGI (MDA-MB-231 breast): 36 µM
- TGI (PC-3 prostate): 29.3 µM
- TGI (OVCAR-4 ovarian): 48.2 µM
- TGI (HCT-116 colon): > 100 µM
- TGI (EKVX NSCLC): 93.7 µM
- TGI (SK-MEL-28 melanoma): 40 µM
- TGI (SNB-75 CNS): 57 µM
- TGI (HOP-62 NSCLC): 38.3 µM
- TGI (UO-31 renal): 18.9 µM
- TGI (A549 NSCLC): 44.4 µM
- TGI (U251 CNS): 25.9 µM
- TGI (KM12 colon): > 100 µM
- TGI (A498 renal): 38.2 µM
- TGI (ACHN renal): 34.8 µM
- TGI (M14 melanoma): 46 µM
- TGI (MOLT-4 leukemia): > 100 µM
- TGI (BT-549 breast): > 100 µM
- TGI (NCI-H226 lung): 42.3 µM
- TGI (SW-620 colon): > 100 µM
